Assays:
Neutrophil = assay: Cytotoxicity against in human Neutrophil cells; format: cell-based
[1] = target: T1, Phosphatidylinositol 4,5-bisphosphate 3-kinase catalytic subunit delta isoform (Homo sapiens, UniProt O00329); assay: Inhibition of PI3Kdelta in human Neutrophil cells; format: cell-based
T1 sequence (O00329 whole entry): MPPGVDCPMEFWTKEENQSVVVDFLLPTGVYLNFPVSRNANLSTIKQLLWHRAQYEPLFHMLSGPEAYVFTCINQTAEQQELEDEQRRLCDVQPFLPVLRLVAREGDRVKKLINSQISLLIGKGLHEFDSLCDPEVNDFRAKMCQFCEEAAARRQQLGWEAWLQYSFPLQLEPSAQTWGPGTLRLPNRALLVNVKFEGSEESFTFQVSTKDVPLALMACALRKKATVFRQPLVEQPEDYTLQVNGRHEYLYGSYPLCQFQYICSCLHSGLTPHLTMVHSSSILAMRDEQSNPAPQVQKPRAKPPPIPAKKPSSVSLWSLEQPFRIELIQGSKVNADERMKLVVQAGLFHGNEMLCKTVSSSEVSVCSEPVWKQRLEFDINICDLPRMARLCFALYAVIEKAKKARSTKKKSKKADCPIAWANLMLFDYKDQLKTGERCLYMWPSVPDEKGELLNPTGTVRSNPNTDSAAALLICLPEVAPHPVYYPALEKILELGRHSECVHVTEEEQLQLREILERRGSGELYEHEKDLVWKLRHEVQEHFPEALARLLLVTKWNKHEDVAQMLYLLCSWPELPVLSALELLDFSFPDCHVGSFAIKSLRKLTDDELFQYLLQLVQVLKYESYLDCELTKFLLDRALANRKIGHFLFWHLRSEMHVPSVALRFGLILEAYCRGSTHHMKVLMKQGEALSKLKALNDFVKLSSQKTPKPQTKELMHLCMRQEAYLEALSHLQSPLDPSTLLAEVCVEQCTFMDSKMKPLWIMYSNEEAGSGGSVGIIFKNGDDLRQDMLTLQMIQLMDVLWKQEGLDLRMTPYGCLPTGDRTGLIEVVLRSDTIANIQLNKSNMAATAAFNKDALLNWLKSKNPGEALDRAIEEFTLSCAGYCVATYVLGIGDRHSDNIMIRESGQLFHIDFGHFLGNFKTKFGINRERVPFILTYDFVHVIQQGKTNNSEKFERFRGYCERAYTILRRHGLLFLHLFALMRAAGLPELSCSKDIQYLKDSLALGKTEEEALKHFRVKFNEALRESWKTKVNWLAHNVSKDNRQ

[2] = target: T2, Phosphatidylinositol 4,5-bisphosphate 3-kinase catalytic subunit gamma isoform (Homo sapiens, UniProt P48736); assay: Inhibition of PI3Kgamma in human Neutrophil cells; format: cell-based
Homo sapiens [3] = organism: Homo sapiens; assay: Selectivity ratio of IC50 for PI3Kbeta in human Neutrophil cells to IC50 for PI3Kdelta in human Neutrophil cells; format: cell-based
Homo sapiens [4] = organism: Homo sapiens; assay: Selectivity ratio of IC50 for PI3Kalpha in human Neutrophil cells to IC50 for PI3Kdelta in human Neutrophil cells; format: cell-based
Homo sapiens [5] = organism: Homo sapiens; assay: Selectivity ratio of IC50 for N-terminal His6-tagged recombiant human full length p120gamma IC50 for N-terminal His6-tagged recombinant full length human p110delta/untagged recombinant full length human p85alpha
Jurkat = assay: Cytotoxicity against human Jurkat cells; format: functional, cell-based
[6] = target: T1, Phosphatidylinositol 4,5-bisphosphate 3-kinase catalytic subunit delta isoform; assay: Inhibition of PI3Kdelta (unknown origin)
SU-DHL-6 [7] = assay: Cytotoxicity against in human SUDHL6 cells; format: functional, cell-based
Homo sapiens [8] = organism: Homo sapiens; assay: Selectivity ratio of IC50 for PI3Kbeta in human SUDHL6 cells to IC50 for PI3Kdelta in human SUDHL6 cells; format: cell-based
[9] = target: T2, Phosphatidylinositol 4,5-bisphosphate 3-kinase catalytic subunit gamma isoform; assay: Inhibition of PI3Kgamma in human SUDHL6 cells; format: cell-based
Homo sapiens [10] = organism: Homo sapiens; assay: Selectivity ratio of IC50 for PI3Kalpha in human SUDHL6 cells to IC50 for PI3Kdelta in human SUDHL6 cells; format: cell-based
[11] = target: T3, PI3-kinase p110-delta/p85-alpha (Homo sapiens, UniProt O00329); assay: Inhibition of N-terminal His6-tagged recombinant full length human p110delta/untagged recombinant full length human p85alpha expressed in baculovirus infected Sf21 insect cells using PIP2 as substrate after 60 mins by HTRF assay
[12] = target: T1, Phosphatidylinositol 4,5-bisphosphate 3-kinase catalytic subunit delta isoform; assay: Inhibition of PI3Kdelta in human Pfeiffer cells; format: cell-based
Pfeiffer = assay: Cytotoxicity against human Pfeiffer cells; format: functional, cell-based
[13] = target: Casein kinase I isoform epsilon (Homo sapiens) (UniProt P49674); assay: Inhibition of casein kinase 1 epsilon (unknown origin) at 1 uM relative to control
[14] = target: T2, Phosphatidylinositol 4,5-bisphosphate 3-kinase catalytic subunit gamma isoform; assay: Inhibition of PI3Kgamma (unknown origin) using PIP2 as substrate preincubated for 10 mins followed by ATP addition measured after 30 mins by HTRF assay
[15] = target: T1, Phosphatidylinositol 4,5-bisphosphate 3-kinase catalytic subunit delta isoform
Description: Inhibition of PI3Kdelta (unknown origin) preincubated for 30 mins followed by insulin stimulation for 5 mins by Western blot analysis

[16] = Cytotoxicity against basophil derived from B-cell malignant patient by cell-titer aqueous one solution cell proliferation assay; format: functional; conditions: Homo sapiens
[17] = Cytotoxicity against human SUDHL cells; format: functional, cell-based
[18] = target: T3, PI3-kinase p110-delta/p85-alpha; assay: Inhibition of N-terminal His6-tagged recombinant full length human p110delta/untagged recombinant full length human p85alpha expressed in baculovirus infected Sf21 insect cells after 20 mins by alphascreen assay
[19] = target: T2, Phosphatidylinositol 4,5-bisphosphate 3-kinase catalytic subunit gamma isoform; assay: Inhibition of PI3Kgamma (unknown origin)
[20] = target: T1, Phosphatidylinositol 4,5-bisphosphate 3-kinase catalytic subunit delta isoform; assay: Inhibition of PI3Kdelta in human SU-DHL6 cells; format: cell-based
SU-DHL-6 [21] = assay: Cytotoxicity against human SU-DHL6 cells; format: functional, cell-based
B cell = assay: Cytotoxicity against human B cells; format: functional, cell-based
[22] = target: DNA-dependent protein kinase catalytic subunit (Homo sapiens, UniProt P78527); assay: Inhibition of DNAPK (unknown origin)
[23] = target: Serine/threonine-protein kinase SIK1 (Homo sapiens) (UniProt P57059); assay: Inhibition of SIK (unknown origin) at 1 uM relative to control
[24] = target: Phosphatidylinositol 3-kinase catalytic subunit type 3 (Homo sapiens, UniProt Q8NEB9); assay: Inhibition of Vps34 (unknown origin)
[25] = target: T2, Phosphatidylinositol 4,5-bisphosphate 3-kinase catalytic subunit gamma isoform; assay: Inhibition of GST-tagged PI3Kgamma (unknown origin) using PIP2 as substrate preincubated for 2 hrs followed by ATP addition measured after 30 mins by TR-FRET assay
[26] = Cytotoxicity against human basophil cells after 24 hrs by MTT assay; format: cell-based
[27] = target: T3, PI3-kinase p110-delta/p85-alpha; assay: Inhibition of N-terminal His6-tagged recombinant full length human p110delta/untagged recombinant full length human p85alpha expressed in baculovirus infected Sf21 insect cells after 60 mins by ADP-Glo assay
Raji = assay: Cytotoxicity against in human Raji cells; format: functional, cell-based
JeKo-1 = assay: Cytotoxicity against human JeKo1 cells; format: functional, cell-based
[28] = target: T3, PI3-kinase p110-delta/p85-alpha; assay: Inhibition of N-terminal His6-tagged recombinant full length human p110delta/untagged recombinant full length human p85alpha expressed in baculovirus infected Sf21 insect cells after 80 mins by fluorescence polarization assay
Homo sapiens [29] = organism: Homo sapiens; assay: Selectivity ratio of IC50 for His-tagged recombiant human full length p110 alpha/p85 alpha IC50 for N-terminal His6-tagged recombinant full length human p110delta/untagged recombinant full length human p85alpha
Homo sapiens [30] = organism: Homo sapiens; assay: Selectivity ratio of IC50 for N-terminal His-tagged recombinant human full length p110 beta/untagged recombinant full length human p85alpha IC50 forN-terminal His6-tagged recombinant full length human p110delta/untagged recombinant full length human p85alpha
[31] = target: T2, Phosphatidylinositol 4,5-bisphosphate 3-kinase catalytic subunit gamma isoform; assay: Inhibition of recombinant N-terminal His-tagged full length human PI3Kgamma expressed in baculovirus expression system after 80 mins by fluorescence polarization assay

T2 sequence (P48736 whole entry, canonical isoform): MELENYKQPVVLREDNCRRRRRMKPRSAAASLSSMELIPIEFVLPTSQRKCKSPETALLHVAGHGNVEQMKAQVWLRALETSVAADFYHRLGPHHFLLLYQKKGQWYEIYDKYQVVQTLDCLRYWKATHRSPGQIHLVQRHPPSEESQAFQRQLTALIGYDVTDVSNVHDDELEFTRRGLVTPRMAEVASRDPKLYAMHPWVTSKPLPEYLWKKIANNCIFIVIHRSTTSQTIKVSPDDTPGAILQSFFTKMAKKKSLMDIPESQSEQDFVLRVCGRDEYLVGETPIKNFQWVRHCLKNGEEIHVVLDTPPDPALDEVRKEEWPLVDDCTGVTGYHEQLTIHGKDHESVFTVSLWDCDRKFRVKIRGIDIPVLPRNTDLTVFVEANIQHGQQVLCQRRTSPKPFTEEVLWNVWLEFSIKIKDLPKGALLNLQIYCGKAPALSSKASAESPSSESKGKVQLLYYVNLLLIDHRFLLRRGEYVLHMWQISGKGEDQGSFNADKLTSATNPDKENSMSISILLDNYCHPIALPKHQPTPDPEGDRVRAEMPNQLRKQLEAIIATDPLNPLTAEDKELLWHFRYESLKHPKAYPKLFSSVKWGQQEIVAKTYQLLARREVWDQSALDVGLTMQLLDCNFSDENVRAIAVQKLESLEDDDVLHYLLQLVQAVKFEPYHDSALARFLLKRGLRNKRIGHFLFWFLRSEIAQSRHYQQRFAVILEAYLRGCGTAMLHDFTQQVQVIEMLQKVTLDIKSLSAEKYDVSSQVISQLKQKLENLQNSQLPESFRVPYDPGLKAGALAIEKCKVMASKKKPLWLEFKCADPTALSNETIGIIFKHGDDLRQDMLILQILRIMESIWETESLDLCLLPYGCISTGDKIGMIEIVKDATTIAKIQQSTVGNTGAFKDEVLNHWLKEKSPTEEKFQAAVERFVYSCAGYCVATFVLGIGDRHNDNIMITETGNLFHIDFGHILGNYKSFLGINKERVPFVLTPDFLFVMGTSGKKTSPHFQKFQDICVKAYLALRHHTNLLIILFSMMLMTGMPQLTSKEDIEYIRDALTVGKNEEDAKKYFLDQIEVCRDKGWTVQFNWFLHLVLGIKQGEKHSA
T3 sequence (P27986 whole entry, one chain of several, canonical isoform): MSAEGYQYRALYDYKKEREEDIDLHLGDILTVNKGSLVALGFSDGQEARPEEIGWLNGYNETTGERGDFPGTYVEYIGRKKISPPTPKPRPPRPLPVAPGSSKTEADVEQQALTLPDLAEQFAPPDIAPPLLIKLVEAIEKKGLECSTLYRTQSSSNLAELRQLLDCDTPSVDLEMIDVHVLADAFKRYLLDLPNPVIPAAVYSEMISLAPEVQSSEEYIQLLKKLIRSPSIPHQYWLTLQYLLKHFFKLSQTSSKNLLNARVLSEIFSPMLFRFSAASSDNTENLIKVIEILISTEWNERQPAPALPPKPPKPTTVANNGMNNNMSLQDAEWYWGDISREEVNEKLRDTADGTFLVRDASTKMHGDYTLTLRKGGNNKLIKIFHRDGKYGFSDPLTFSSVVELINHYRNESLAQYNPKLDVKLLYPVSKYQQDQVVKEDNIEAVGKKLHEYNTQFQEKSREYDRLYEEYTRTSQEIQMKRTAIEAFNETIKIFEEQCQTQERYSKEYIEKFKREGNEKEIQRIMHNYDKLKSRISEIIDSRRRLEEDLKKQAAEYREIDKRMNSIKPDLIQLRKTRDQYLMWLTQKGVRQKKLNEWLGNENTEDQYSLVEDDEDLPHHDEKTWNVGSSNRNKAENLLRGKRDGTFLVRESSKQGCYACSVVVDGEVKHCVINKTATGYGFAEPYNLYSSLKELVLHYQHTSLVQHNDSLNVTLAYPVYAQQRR
Chain of Phosphatidylinositol 3-kinase catalytic subunit type 3 (Q8NEB9 whole entry, canonical isoform): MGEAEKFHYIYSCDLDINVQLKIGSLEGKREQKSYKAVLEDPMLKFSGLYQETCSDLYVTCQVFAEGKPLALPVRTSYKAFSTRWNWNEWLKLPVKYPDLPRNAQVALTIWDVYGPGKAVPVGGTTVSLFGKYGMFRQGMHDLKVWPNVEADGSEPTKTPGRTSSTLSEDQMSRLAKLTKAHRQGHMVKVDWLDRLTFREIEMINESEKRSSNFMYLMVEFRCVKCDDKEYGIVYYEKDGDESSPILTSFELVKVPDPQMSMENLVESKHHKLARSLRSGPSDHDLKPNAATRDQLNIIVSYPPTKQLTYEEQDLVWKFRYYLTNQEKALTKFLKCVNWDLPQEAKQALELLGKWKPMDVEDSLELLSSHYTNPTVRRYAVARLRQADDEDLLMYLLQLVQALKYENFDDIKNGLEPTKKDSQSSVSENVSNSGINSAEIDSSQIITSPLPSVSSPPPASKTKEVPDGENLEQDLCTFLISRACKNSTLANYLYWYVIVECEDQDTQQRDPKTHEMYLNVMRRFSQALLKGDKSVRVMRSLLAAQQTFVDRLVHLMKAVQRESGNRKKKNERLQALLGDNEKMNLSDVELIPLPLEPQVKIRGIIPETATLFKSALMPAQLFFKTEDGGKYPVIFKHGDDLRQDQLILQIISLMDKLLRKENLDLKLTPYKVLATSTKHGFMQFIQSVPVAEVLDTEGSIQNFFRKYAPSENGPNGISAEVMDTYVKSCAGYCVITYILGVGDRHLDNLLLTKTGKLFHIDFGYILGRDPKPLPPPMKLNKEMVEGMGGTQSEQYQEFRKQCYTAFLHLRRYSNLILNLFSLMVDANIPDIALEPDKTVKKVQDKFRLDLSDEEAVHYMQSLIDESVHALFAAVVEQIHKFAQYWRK
Chain of Serine/threonine-protein kinase SIK1 (Homo sapiens) (P57059 whole entry): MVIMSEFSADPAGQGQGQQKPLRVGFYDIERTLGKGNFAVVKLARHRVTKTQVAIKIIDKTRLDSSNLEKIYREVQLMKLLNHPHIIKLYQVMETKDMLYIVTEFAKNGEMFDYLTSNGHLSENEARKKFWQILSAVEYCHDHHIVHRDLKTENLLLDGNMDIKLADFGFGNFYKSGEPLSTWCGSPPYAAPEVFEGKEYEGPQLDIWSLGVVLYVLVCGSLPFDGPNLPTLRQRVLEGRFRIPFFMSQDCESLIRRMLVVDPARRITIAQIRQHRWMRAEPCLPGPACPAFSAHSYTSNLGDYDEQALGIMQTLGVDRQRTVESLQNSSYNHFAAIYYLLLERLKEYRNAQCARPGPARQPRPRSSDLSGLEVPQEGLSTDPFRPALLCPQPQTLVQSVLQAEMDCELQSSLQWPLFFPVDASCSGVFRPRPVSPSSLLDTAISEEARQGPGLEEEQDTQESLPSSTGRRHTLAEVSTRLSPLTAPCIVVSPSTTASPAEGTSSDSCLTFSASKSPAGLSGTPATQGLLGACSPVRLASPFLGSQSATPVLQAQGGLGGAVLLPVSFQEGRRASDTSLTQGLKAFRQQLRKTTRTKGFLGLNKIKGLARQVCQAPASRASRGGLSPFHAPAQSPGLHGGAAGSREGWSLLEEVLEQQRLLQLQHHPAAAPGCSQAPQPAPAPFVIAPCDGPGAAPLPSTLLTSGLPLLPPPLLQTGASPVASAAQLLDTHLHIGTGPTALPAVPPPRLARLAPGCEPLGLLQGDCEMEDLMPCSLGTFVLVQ
Chain of Casein kinase I isoform epsilon (Homo sapiens) (P49674 whole entry, looked up, canonical isoform): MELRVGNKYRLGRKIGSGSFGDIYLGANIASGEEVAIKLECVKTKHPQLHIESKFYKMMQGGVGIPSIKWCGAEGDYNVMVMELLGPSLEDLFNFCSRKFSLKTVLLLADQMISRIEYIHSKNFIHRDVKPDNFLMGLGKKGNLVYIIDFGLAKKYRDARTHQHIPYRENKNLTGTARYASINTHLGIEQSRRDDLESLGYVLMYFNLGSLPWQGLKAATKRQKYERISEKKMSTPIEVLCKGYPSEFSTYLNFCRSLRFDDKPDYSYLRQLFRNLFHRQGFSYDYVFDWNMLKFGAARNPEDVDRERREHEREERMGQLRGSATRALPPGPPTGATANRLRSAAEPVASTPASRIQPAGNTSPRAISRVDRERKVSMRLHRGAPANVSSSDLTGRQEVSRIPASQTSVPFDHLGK

[O-][n+]1cccc(-c2nc3c(Cl)cccc3cc2[C@@H](Nc2ncnc3cccnc23)C(F)(F)F)c1 [SELETALISIB]
IC50 (Neutrophil): 16 nM
IC50 [1]: 12 nM
IC50 [2]: 280 nM
Ratio IC50 (Homo sapiens [3]): 180
Ratio IC50 (Homo sapiens [4]): 300

Cc1ccc2c(c1)C(=O)N(C)c1cnc(Nc3cccc(S(=O)(=O)N4CCC(O)CC4)c3)nc1N2C
Ratio IC50 (Homo sapiens [5]): 3.5
IC50 (Jurkat): 1400 nM
IC50 [6]: 2 nM

C[C@H](Nc1ncnc2[nH]cnc12)C1=Nc2cccc(Cl)c2S(=O)(=O)N1c1ccccc1
IC50 (SU-DHL-6 [7]): 6 nM
Ratio IC50 (Homo sapiens [8]): 170
IC50 [9]: 34 nM
Ratio IC50 (Homo sapiens [10]): 790

CC[C@H](Nc1ncnc2c1nc(-c1cnn(CC)c1C)n2C)C(=O)N1CCC(F)(F)CC1
IC50 [11]: 2.8 nM

Cc1c(Cl)cc(C(C)Nc2ncnc3nc[nH]c23)c(-c2cccc(F)c2)c1C(N)=O (stereo not given)
IC50 [12]: < 50 nM
IC50 (Pfeiffer): < 50 nM

CC(C)Oc1ccc(-c2nn([C@@H](C)c3oc4ccc(F)cc4c(=O)c3-c3cccc(F)c3)c3ncnc(N)c23)cc1F [UMBRALISIB]
inhibition [13]: > 60%
IC50 [14]: > 120 nM

CC[C@H](Nc1ncnc(N)c1-c1nnc(C)o1)c1nc2cccc(Cl)c2c(=O)n1-c1ccccc1
IC50 [15]: 2 nM

Cc1csc2nc([C@H](C)Nc3ncnc4[nH]cnc34)c(-c3cccc(F)c3)c(=O)n12 [DEZAPELISIB]
IC50 [16]: 35 nM

Cc1cccc2nc([C@H](C)Nc3ncnc4[nH]cc(-c5cccc(NS(C)(=O)=O)c5)c34)n(-c3ccccc3)c(=O)c12
IC50 [15]: 0.04 nM

CC(Nc1ncnc2[nH]cnc12)c1cc2ccccn2c(=O)c1-c1ccccc1 (stereo not given)
IC50 [6]: 0.1 to 10 nM

CC(=O)N1CC(N2CCOc3c(C(C)n4nc(C)c5c(N)ncnc54)cc(Cl)c(C)c3C2)C1 (stereo not given)
IC50 [17]: < 500 nM
IC50 [18]: < 100 nM

CCn1c(-c2ccc(C(F)(F)F)nc2)nc2c(NC3CCc4nnc(C(C)C)n4C3)ncnc21 (stereo not given)
IC50 [11]: < 1 nM

CC(c1oc(=O)c2ccccc2c1C1=CCN(C)CC1)n1nc(-c2cc(O)cc(F)c2)c2c(N)ncnc21 (stereo not given)
IC50 [19]: > 1000 nM

C[C@H](Nc1nc(N)nc(N)c1C#N)c1cn2ncc(Cl)c2nc1-c1cccc(F)c1
IC50 [20]: < 20 nM
IC50 (SU-DHL-6 [21]): < 20 nM

CCC(=O)N1CC[C@H](Oc2ncnc3c2nc(-c2cnn(CC)c2C)n3C)C1
IC50 [11]: < 1 nM

C[C@H](Nc1ncnc(N)c1-c1nnn[nH]1)c1nn2cccc2c(=O)n1-c1ccccc1
IC50 [15]: 0.2 nM

Cc1csc2cc(C(C)Nc3ncnc4[nH]cnc34)c(-c3ccccc3)c(=O)n12 (stereo not given)
IC50 (SU-DHL-6 [21]): 36 nM

COc1ccc(-c2nc3c(O[C@H]4CCN(C(=O)C5CCOCC5)C4)ncnc3n2C)cn1
IC50 [11]: < 1 nM

Cc1ccn2nc([C@H](C)Nc3ncnc4[nH]cc(-c5ccc(O)c(CN6CCC(N(C)C)CC6)c5)c34)n(-c3ccccc3)c(=O)c12
IC50 [15]: 0.43 nM

Cn1c(C(=O)NCC2CC2)nc2c(N3CCC(n4c(=O)[nH]c5ccccc54)CC3)ncnc21
Ratio IC50 (Homo sapiens [5]): > 13
IC50 [11]: 7.5 nM

Cc1ncc(-c2nc3c(-c4ccc5c(c4)C4(CCCN4S(C)(=O)=O)C(=O)N5)ncnc3n2C)cn1 (stereo not given)
IC50 [11]: 0.7 nM

CCOc1c([C@H](C)n2nc(C)c3c(N)ncnc32)cc(Cl)c(F)c1[C@@H]1CNC(=O)C1 [PARSACLISIB]
IC50 (B cell): 0.15 nM

Cc1nc(NC(=O)CNC(=O)c2ccccc2)sc1-c1cnc(Cl)c(NS(=O)(=O)c2ccccc2)c1
Ratio IC50 (Homo sapiens [5]): 71
IC50 [6]: 0.6 nM

C[C@H](NC(=O)c1c(N)nn2cccnc12)c1cc2cccc(C#Cc3cnn(C)c3)c2c(=O)n1-c1ccccc1 [EGANELISIB]
IC50 [22]: 4800 nM
inhibition [23]: 88%
IC50 [24]: 40000 nM

C[C@H](Nc1ncnc(N)c1C#Cc1ccc(F)cn1)c1nc2c(F)ccc(F)c2c(=O)n1-c1cc(F)cc(F)c1
IC50 [15]: < 100 nM

C[C@H](Nc1ncnc2[nH]cnc12)c1nc2ccc(F)cc2c(=O)n1-c1ccccc1 [ACALISIB]
IC50 [25]: 3000 nM
IC50 [26]: 19 nM

Cc1nn(C)c(-c2ccccc2)c1Cn1nc(-c2cc(O)cc(F)c2)c2c(N)ncnc21
IC50 [27]: < 1000 nM

CC[C@H](Nc1ncnc2[nH]cnc12)c1nc2cccc(F)c2c(=O)n1-c1ccccc1 [IDELALISIB]
IC50 [16]: 846 nM

C[C@H](Nc1ncnc2nc[nH]c12)c1cc2cccc(Cl)c2c(=O)n1-c1ccccc1 [DUVELISIB]
IC50 (Raji): 0.36 nM

Cn1nc(-c2cnc(N)c(-c3ccc(C(N)=O)c(F)c3)n2)nc1C1(c2ccccc2)CC1
IC50 (JeKo-1): 120 nM

C[C@H]1CN(c2nc(N)nc3c2S(=O)(=O)CC3)[C@@H]1c1nn2ccc(Cl)c2c(=O)n1-c1ccccc1
IC50 [28]: 4 nM
Ratio IC50 (Homo sapiens [29]): 250
Ratio IC50 (Homo sapiens [30]): 250
IC50 [31]: 3 nM

CCn1c(-c2cnc(C)nc2)nc2c(NC3CCc4nc(Cl)n(C5CC5)c4C3)ncnc21 (stereo not given)
IC50 [11]: < 1 nM

COc1c(C(C)Nc2ncnc(N)c2C#N)cc(Cl)c(C)c1-c1cccnc1 (stereo not given)
IC50 (Pfeiffer): < 20 nM
IC50 [18]: < 20 nM

CC(c1cc2ccccn2c1-c1ccc(=O)n(CCN2CCOCC2)n1)n1nc(-c2cc(O)cc(F)c2)c2c(N)ncnc21 (stereo not given)
IC50 [19]: < 10 nM
IC50 [6]: 10 to 1000 nM

Cc1nc(N)nc(N[C@@H](C)c2nc3ccn(C)c3cc2N2CCNCC2)c1C#N
IC50 [6]: 0.7 nM

C[C@H](Nc1ncnc(N)c1C#N)c1cc2ncc(Cl)n2cc1-c1ccccc1
IC50 [19]: 87 nM
IC50 [6]: 0.2 nM

— ChEMBL document CHEMBL4350952, “Evolution of PI3Kγ and δ Inhibitors for Inflammatory and Autoimmune Diseases” (J Med Chem, 2019)
